Measurements published in patent US10093623B2, “Cyclic amides as MetAP-2 inhibitors” (MERCK PATENT GmbH, priority 2012, dated 2018).
pIC50: −log10 of the molar value.

target: MetAP-2 (Homo sapiens, UniProt P50579); test: MetAP-2 activity measurement (coupled enzymatic reactions, Met-Arg-Ser substrate, dianisidine detection at 450 nm); type: biochemical; conditions: Inhibition of MetAP-2; read-out: IC50 enzyme
How it was run: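 Coupled continuous assay with Met-Arg-Ser tripeptide substrate: released methionine oxidised by L-amino acid oxidase to give H2O2, which peroxidase uses to oxidise dianisidine, followed at 450 nm. Activity taken as slope of absorbance versus time over the visually linear region; dianisidine extinction coefficient converts to mol Met per time.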

Chain of MetAP-2 (P50579 whole entry, species assumed): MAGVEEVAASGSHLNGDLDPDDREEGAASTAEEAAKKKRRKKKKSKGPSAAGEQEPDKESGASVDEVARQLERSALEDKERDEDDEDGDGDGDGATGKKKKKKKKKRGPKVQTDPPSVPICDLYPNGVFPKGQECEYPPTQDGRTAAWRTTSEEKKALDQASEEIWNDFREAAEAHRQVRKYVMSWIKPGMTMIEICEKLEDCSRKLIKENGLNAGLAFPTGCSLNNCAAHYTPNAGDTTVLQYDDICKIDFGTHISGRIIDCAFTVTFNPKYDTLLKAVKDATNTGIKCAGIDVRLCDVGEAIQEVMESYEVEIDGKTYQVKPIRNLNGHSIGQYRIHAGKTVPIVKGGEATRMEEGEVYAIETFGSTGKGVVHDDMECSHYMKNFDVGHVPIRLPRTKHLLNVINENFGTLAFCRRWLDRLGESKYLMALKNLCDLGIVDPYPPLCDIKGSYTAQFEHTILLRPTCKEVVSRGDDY

**Q.** How did the pIC50 turn out when `O=C(NCc1cc(F)cc(Cl)c1)C1(O)CCN(C[C@H]2CC[C@H](C(=O)O)CC2)C1=O` (some centres unmarked) [A273, 4-[3-(3-Chloro-5-fluorobenzylcarbamoyl)-3-hydroxy-2-oxopyrrolidin-1-yl-methyl]cyclohexanecarboxylic acid] was run?
**A.** 5.00 to 6.00

**Q.** With `O=C(NCc1cc(F)cc(Cl)c1)C1(O)CCN(C[C@H]2CC[C@@H](C(=O)O)CC2)C1=O` (some centres unmarked) [A274, 4-[3-(3-Chloro-5-fluorobenzylcarbamoyl)-3-hydroxy-2-oxopyrrolidin-1-yl-methyl]cyclohexanecarboxylic acid] as the compound, how does the pIC50 read?
**A.** 5.00 to 6.00

**Q.** With `CCN1C[C@@H]2[C@H](C1)[C@H]2N1CCC(O)(C(=O)NCc2cc(F)cc(Cl)c2)C1=O` (stereo partly drawn) [A275, N-(3-Chloro-5-fluorobenzyl)-1-((1S,5R,6S)-3-ethyl-3-aza-bicyclo[3.1.0]hex-6-yl)-3-hydroxy-2-oxopyrrolidine-3-carboxamide] as the compound, how does the pIC50 read?
**A.** < 5.00

**Q.** How did the pIC50 turn out when `Cn1nccc1CN1CCC(O)(C(=O)NCc2cc(F)cc(Cl)c2)C1=O` (centres unmarked) [A276, N-(3-Chloro-5-fluorobenzyl)-3-hydroxy-1-(2-methyl-2H-pyrazol-3-ylmethyl)-2-oxopyrrolidine-3-carboxamide] was run?
**A.** 5.00 to 6.00

**Q.** With `O=C(NCc1cc(F)cc(Cl)c1)C1(O)CCN(Cc2cc[nH]n2)C1=O` (centres unmarked) [A277, N-(3-Chloro-5-fluorobenzyl)-3-hydroxy-2-oxo-1-(1H-pyrazol-3-ylmethyl)pyrrolidine-3-carboxamide] as the compound, how does the pIC50 read?
**A.** 6.00 to 8.00

**Q.** `CNC(=O)[C@H]1CC[C@H](CN2CCC(O)(C(=O)NCc3cc(F)cc(Cl)c3)C2=O)CC1` (some centres unmarked) [A278, N-(3-Chloro-5-fluorobenzyl)-3-hydroxy-1-(4-methylcarbamoyl-cyclohexylmethyl)-2-oxo-pyrrolidine-3-carboxamide] was tested. Which pIC50 did it give?
**A.** 6.00 to 8.00

**Q.** `O=C(NCc1cc(F)cc(Cl)c1)C1(O)CCN(Cc2c[nH]cn2)C1=O` (centres unmarked) [A279, N-(3-Chloro-5-fluorobenzyl)-3-hydroxy-1-(1H-imidazol-4-ylmethyl)-2-oxopyrrolidine-3-carboxamide] was tested. Which pIC50 did it give?
**A.** 5.00 to 6.00

**Q.** With `Cc1ccc(CN2CCC(O)(C(=O)NCc3cc(F)cc(Cl)c3)C2=O)n1C` (centres unmarked) [A280, N-(3-Chloro-5-fluorobenzyl)-1-(1,5-Dimethyl-1H-pyrrol-2-ylmethyl)-3-hydroxy-2-oxo-pyrrolidine-3-carboxamide] as the compound, how does the pIC50 read?
**A.** 5.00 to 6.00

**Q.** `CS(=O)(=O)N1CC[C@H](N2CCC(O)(C(=O)NCc3cc(F)cc(Cl)c3)C2=O)C1` (stereo partly drawn) [A281, N-(3-Chloro-5-fluorobenzyl)-(S)-3-hydroxy-1′-methanesulfonyl-2-oxo[1,3′]bipyrrolidinyl-3-carboxamide] was tested. Which pIC50 did it give?
**A.** 5.00 to 6.00

**Q.** How did the pIC50 turn out when `O=C(CN1CCC(O)(C(=O)NCc2cc(F)cc(Cl)c2)C1=O)NCCO` (centres unmarked) [A282, N-(3-Chloro-5-fluorobenzyl)-3-hydroxy-1-[(2-hydroxy-ethylcarbamoyl)methyl]-2-oxo-pyrrolidine-3-carboxamide] was run?
**A.** 5.00 to 6.00

**Q.** How did the pIC50 turn out when `O=C1CCc2cc(N3CC[C@](O)(C(=O)NCc4ccc(F)c(F)c4F)C3=O)ccc2N1` [A284, N-(2,3,4-Trifluorobenzyl)-(S)-3-hydroxy-2-oxo-1-(2-oxo-1,2,3,4-tetrahydroquinolin-6-yl)-pyrrolidine-3-carboxamide] was run?
**A.** 6.00 to 8.00

**Q.** With `O=C1Nc2ccc(N3CC[C@](O)(C(=O)NCc4cc(F)cc(Cl)c4)C3=O)cc2C1(F)F` [A286, N-(3-Chloro-5-fluorobenzyl)-(S)-1-(3,3-difluoro-2-oxo-2,3-dihydro-1H-indol-5-yl)-3-hydroxy-2-oxopyrrolidine-3-carboxamide] as the compound, how does the pIC50 read?
**A.** 6.00 to 8.00

**Q.** With `O=C1Nc2ccc(N3CC[C@@](O)(C(=O)NCc4cc(F)cc(Cl)c4)C3=O)cc2C1(F)F` [A288, N-(3-Chloro-5-fluorobenzyl)-(R)-1-(3,3-difluoro-2-oxo-2,3-dihydro-1H-indol-5-yl)-3-hydroxy-2-oxopyrrolidine-3-carboxamide] as the compound, how does the pIC50 read?
**A.** < 5.00

**Q.** With `Cc1nnc(CN2CCC(O)(C(=O)NCc3cc(F)cc(Cl)c3)C2=O)o1` (centres unmarked) [A290, N-(3-Chloro-5-fluorobenzyl)-3-hydroxy-1-(5-methyl-1,3,4-oxadiazol-2-ylmethyl)-2-oxo-pyrrolidine-3-carboxamide] as the compound, how does the pIC50 read?
**A.** 5.00 to 6.00

**Q.** `CC(=O)N1CC[C@@H](N2CCC(O)(C(=O)NCc3cc(F)cc(Cl)c3)C2=O)C1` (stereo partly drawn) [A291, N-(3-chloro-5-fluorobenzyl-)(R)-1′-acetyl-3-hydroxy-2-oxo-[1,3′]bipyrrolidinyl-3-carboxamide] was tested. Which pIC50 did it give?
**A.** 5.00 to 6.00

**Q.** How did the pIC50 turn out when `CS(=O)(=O)N1CC[C@@H](N2CCC(O)(C(=O)NCc3cc(F)cc(Cl)c3)C2=O)C1` (stereo partly drawn) [A292, N-(3-Chloro-5-fluorobenzyl)-(R)-3-hydroxy-1′-methanesulfonyl-2-oxo[1,3′]bipyrrolidinyl-3-carboxamide] was run?
**A.** 5.00 to 6.00

**Q.** With `CC1CCC(N2CCC(O)(C(=O)NCc3cc(F)cc(Cl)c3)C2=O)CC1` (centres unmarked) [A293, N-(3-Chloro-5-fluorobenzyl)-3-hydroxy-1-(4-methylcyclohexyl)-2-oxopyrrolidine-3-carboxamide] as the compound, how does the pIC50 read?
**A.** 6.00 to 8.00

**Q.** With `NC(=O)CCN1CCC(O)(C(=O)NCc2cc(F)cc(Cl)c2)C1=O` (centres unmarked) [A300, N-(3-Chloro-5-fluorobenzyl)-1-(2-carbamoylethyl)-3-hydroxy-2-oxopyrrolidine-3-carboxamide] as the compound, how does the pIC50 read?
**A.** 5.00 to 6.00

**Q.** With `O=C1CCc2cc(N3CC[C@](O)(C(=O)NCc4cc(Cl)ccc4F)C3=O)ccc2N1` [B4, N-(5-Chloro-2-fluorobenzyl)-(S)-3-hydroxy-2-oxo-1-(2-oxo-1,2,3,4-tetrahydroquinolin-6-yl)-pyrrolidine-3-carboxamide] as the compound, how does the pIC50 read?
**A.** 6.00 to 8.00

**Q.** With `O=C1CCc2cc(N3CC[C@](O)(C(=O)NCCc4ccccc4F)C3=O)ccc2N1` [B5, N-[2-(2-Fluorophenyl)ethyl]-(S)-3-hydroxy-2-oxo-1-(2-oxo-1,2,3,4-tetrahydroquinolin-6-yl)-pyrrolidine-3-carboxamide] as the compound, how does the pIC50 read?
**A.** 6.00 to 8.00

**Q.** How did the pIC50 turn out when `O=C1CCc2cc(N3CC[C@](O)(C(=O)NCCc4cccc(F)c4)C3=O)ccc2N1` [B6, N-[2-(3-Fluorophenyl)ethyl]-(S)-3-hydroxy-2-oxo-1-(2-oxo-1,2,3,4-tetrahydroquinolin-6-yl)-pyrrolidine-3-carboxamide] was run?
**A.** 6.00 to 8.00

**Q.** With `CC(=O)Nc1ccc(N2CC[C@](O)(C(=O)NCc3cccc(F)c3Cl)C2=O)cn1` [B9, N-(2-Chloro-3-fluorobenzyl)-(S)-1-(6-acetylaminopyridin-3-yl)-3-hydroxy-2-oxopyrrolidine-3-carboxamide] as the compound, how does the pIC50 read?
**A.** 6.00 to 8.00

**Q.** `O=C(NCCc1cccc(F)c1)[C@@]1(O)CCN(c2ccc3[nH]ccc3c2)C1=O` [B10] was tested. Which pIC50 did it give?
**A.** 6.00 to 8.00

**Q.** How did the pIC50 turn out when `COc1cc(Cl)c(C)cc1N1CCC(O)(C(=O)NCc2cc(F)cc(Cl)c2)C1=O` (centres unmarked) [B12, N-(3-Chloro-5-fluorobenzyl)-1-(4-chloro-2-methoxy-5-methyl-phenyl)-3-hydroxy-2-oxo-pyrrolidine-3-carboxamide] was run?
**A.** 5.00 to 6.00

**Q.** With `COc1ccc(Cl)cc1N1CCC(O)(C(=O)NCc2cc(F)cc(Cl)c2)C1=O` (centres unmarked) [B13, 1-(5-Chloro-2-methoxyphenyl)-3-hydroxy-2-oxopyrrolidine-3-carboxylic acid 3-chloro-5-fluorobenzylamide] as the compound, how does the pIC50 read?
**A.** 5.00 to 6.00

**Q.** `O=C(NCCc1ccccc1F)[C@@]1(O)CCN(c2ccc3[nH]ccc3c2)C1=O` [B14, (S)-3-hydroxy-1-(1H-indol-5-yl)-2-oxopyrrolidine-3-carboxylic acid[2-(2-fluorophenyl)ethyl]-amide] was tested. Which pIC50 did it give?
**A.** 6.00 to 8.00

**Q.** How did the pIC50 turn out when `O=C1CCc2cc(N3CC[C@](O)(C(=O)NCc4cccc(F)c4Cl)C3=O)ccc2N1` [B15, N-(2-Chloro-3-fluorobenzyl)-(S)-3-hydroxy-2-oxo-1-(2-oxo-1,2,3,4-tetrahydroquinolin-6-yl)-pyrrolidine-3-carboxamide] was run?
**A.** 6.00 to 8.00

**Q.** `O=C(NCc1cc(F)cc(Cl)c1)C1(O)CCCN(Cc2ccccc2)C1` (centres unmarked) [B16, N-(3-Chloro-5-fluorobenzyl)-1-benzyl-3-hydroxypiperidine-3-carboxamide] was tested. Which pIC50 did it give?
**A.** 5.00 to 6.00

**Q.** With `O=C(NCc1cc(F)cc(Cl)c1)[C@@]1(O)CCN(c2ccc(Br)c(CO)c2)C1=O` [B17, N-(3-Chloro-5-fluorobenzyl)-(S)-1-(4-bromo-3-hydroxymethyl-phenyl)-3-hydroxy-2-oxo-pyrrolidine-3-carboxamide] as the compound, how does the pIC50 read?
**A.** 6.00 to 8.00

**Q.** `O=C1N(CC2CCCCC2)CCCC1(O)CNCc1cc(F)cc(Cl)c1` (centres unmarked) [B18, 3-[(3-Chloro-5-fluorobenzylamino)methyl]-1-cyclohexylmethyl-3-hydroxy-piperidin-2-one] was tested. Which pIC50 did it give?
**A.** 6.00 to 8.00

**Q.** How did the pIC50 turn out when `OC1(CNCc2cc(F)cc(Cl)c2)CCCN(Cc2ccccc2)C1` (centres unmarked) [B19, 1-Benzyl-3-[(3-chloro-5-fluorobenzylamino)methyl]-piperidin-3-ol] was run?
**A.** < 5.00

**Q.** With `OC1(CNCc2cccc(F)c2)CCCN(Cc2ccccc2)C1` (centres unmarked) [B20, 1-Benzyl-3-[(3-fluorobenzylamino)methyl]-piperidin-3-ol] as the compound, how does the pIC50 read?
**A.** < 5.00

**Q.** With `O[C@]1(CNCc2ccc(F)cc2)CCCN(Cc2ccccc2)C1` [B21, (S)-1-Benzyl-3-[(4-fluorobenzylamino)methyl]-piperidin-3-ol] as the compound, how does the pIC50 read?
**A.** < 5.00

**Q.** With `O=C1N(Cc2cccc(F)c2F)CCC[C@]1(O)CNCc1cccc(F)c1` [B22, (S)-1-(2,3-Difluorobenzyl)-3-[(3-fluorobenzylamino)methyl]-3-hydroxypiperidin-2-one] as the compound, how does the pIC50 read?
**A.** 6.00 to 8.00

**Q.** How did the pIC50 turn out when `O=C1N(Cc2cccc(F)c2F)CCC[C@@]1(O)CNCc1cccc(F)c1` [B23, (R)-1-(2,3-Difluorobenzyl)-3-[(3-fluorobenzylamino)methyl]-3-hydroxypiperidin-2-one] was run?
**A.** 5.00 to 6.00

**Q.** How did the pIC50 turn out when `O=C1CCc2cc(N3CC[C@](O)(C(=O)NCc4cc(F)ccc4F)C3=O)ccc2N1` [B24, N-(2,5-Difluorobenzyl)-(S)-3-hydroxy-2-oxo-1-(2-oxo-1,2,3,4-tetrahydroquinolin-6-yl)-pyrrolidine-3-carboxamide] was run?
**A.** 6.00 to 8.00

**Q.** How did the pIC50 turn out when `O=C(NCc1cc(F)cc(Cl)c1)C1(O)CCN(c2cc(C(F)(F)F)ccc2F)C1=O` (centres unmarked) [B26, N-(3-Chloro-5-fluorobenzyl)-1-(2-Fluoro-5-trifluoromethyl-phenyl)-3-hydroxy-2-oxo-pyrrolidine-3-carboxamide] was run?
**A.** 6.00 to 8.00

**Q.** With `O=C(NCc1cc(F)cc(Cl)c1)C1(O)CCN(c2ccc(Cl)c(C(F)(F)F)c2)C1=O` (centres unmarked) [B27, N-(3-Chloro-5-fluorobenzyl)-1-(4-Chloro-3-trifluoromethyl-phenyl)-3-hydroxy-2-oxo-pyrrolidine-3-carboxamide] as the compound, how does the pIC50 read?
**A.** 6.00 to 8.00
